A short description of this series: Drug solubility in coconut oil, CAOM and related dissolving agents. The format is physicochemical.

Converted amounts (≈) assume the structure as drawn.

One may read the solubility as the dissolved amount per volume that the medium holds. With `COc1cc(/C=C/C(=O)CC(=O)/C=C/c2ccc(O)c(OC)c2)ccc1O` [curcumin], the “solubility of curcumin in CAOM relative to coconut oil” value (in CAOM versus coconut oil) is on record as 6 times. Also, for the setting “oil or lipid, thermodynamic from solid, in coconut oil, room temperature, mean±SD n=3, read-out: solubility of curcumin in coconut oil”, the solubility at 2 days was found to be 2440 ± 240 µg/mL (≈ 6.62 mM).

The record behind these values is US20230106719A1, “DISSOLVING AGENT” (NATIONAL UNIVERSITY CORPORATION HOKKAIDO UNIVERSITY, priority 2020, published 2023).
